Results on five molecules are retold here after ChEMBL document CHEMBL3046616, “Design, synthesis, and biological activities of milbemycin analogues” (2011).

Usually mortality stands for the share of the test organisms that died. A word on the LC50: it is the concentration lethal to half of the exposed cells or organisms.

Values after ≈ are worked out from the molar mass of the structure shown.

Type in all cases: functional
The subject of assay [1] is Mythimna separata. The assay can be described thus: Insecticidal activity against Mythimna separata (Oriental armyworm) fourth-instar larvae reared compound pre-treated corn leaves assessed as insect mortality at 1 mg/L measured 2 days post compound dose.
The subject of the next assay is Tetranychus cinnabarinus. Kind of assay: Insecticidal activity against Tetranychus cinnabarinus (carmine spider mite) […] assessed as larvicidal activity at 0.006 mg/L after 48 hr.
The subject of assay [2] is Mythimna separata. Kind of assay: Insecticidal activity against fourth-instar larvae of Mythimna separata (Oriental armyworm) reared on compound pre-treated corn leaves assessed as insect mortality at 0.0625 mg/L measured 2 days post compound dose.
In assay [3] the test system is Mythimna separata. The assay can be described thus: Insecticidal activity against Mythimna separata (Oriental armyworm) fourth-instar larvae reared compound pre-treated corn leaves assessed as insect mortality measured 2 days post compound dose.
In assay [4] the test system is Mythimna separata. Kind of assay: Insecticidal activity against Mythimna separata (Oriental armyworm) fourth-instar larvae reared compound pre-treated corn leaves assessed as insect mortality at 0.5 mg/L measured 2 days post compound dose.
In assay [5] the test system is Aphis fabae. Kind of assay: Insecticidal activity against Aphis fabae (black bean aphid) infested soybean tender shoots at 0.25 mg/L measured 48 hr post compound dose by modified FAO dip method.
Assay [6] deals with Aphis fabae. Kind of assay: Insecticidal activity against Aphis fabae (black bean aphid) infested soybean tender shoots at 1 mg/L measured 48 hr post compound dose by modified FAO dip method.
Assay [7] concerns Mythimna separata. Kind of assay: Insecticidal activity against fourth-instar larvae of Mythimna separata (Oriental armyworm) reared on compound pre-treated corn leaves assessed as insect mortality at 0.125 mg/L measured 2 days post compound dose.
Assay [8] relates to Aphis fabae. The assay can be described thus: Insecticidal activity against Aphis fabae (black bean aphid) infested soybean tender shoots at 0.125 mg/L measured 48 hr post compound dose by modified FAO dip method.
For assay [9], the system named is Mythimna separata. The assay can be described thus: Insecticidal activity against Mythimna separata (Oriental armyworm) fourth-instar larvae reared compound pre-treated corn leaves assessed as insect mortality at 10 mg/L measured 2 days post compound dose.
Assay [10] has as its system Aphis fabae. Kind of assay: Insecticidal activity against Aphis fabae (black bean aphid) infested soybean tender shoots at 10 mg/L measured 48 hr post compound dose by modified FAO dip method.
Assay [11] relates to Aphis fabae. Kind of assay: Insecticidal activity against Aphis fabae (black bean aphid) infested soybean tender shoots at 0.5 mg/L measured 48 hr post compound dose by modified FAO dip method.
The test system of assay [12] is Aphis fabae. Kind of assay: Insecticidal activity against Aphis fabae (black bean aphid) infested soybean tender shoots at 2 mg/L measured 48 hr post compound dose by modified FAO dip method.
Assay [13] relates to Aphis fabae. Kind of assay: Insecticidal activity against Aphis fabae (black bean aphid infested soybean tender shoots measured 48 hr post compound dose by modified FAO dip method.
Assay [14] has as its system Aphis fabae. The assay can be described thus: Insecticidal activity against Aphis fabae (black bean aphid) infested soybean tender shoots at 0.0625 mg/L measured 48 hr post compound dose by modified FAO dip method.
For assay [15], the system named is Mythimna separata. Kind of assay: Insecticidal activity against Mythimna separata (Oriental armyworm) fourth-instar larvae reared compound pre-treated corn leaves assessed as insect mortality at 0.25 mg/L measured 2 days post compound dose.
Assay [16] relates to Mythimna separata. Kind of assay: Insecticidal activity against fourth-instar larvae of Mythimna separata (Oriental armyworm) reared on compound pre-treated corn leaves assessed as insect mortality at 0.03125 mg/L measured 2 days post compound dose.
Assay [17] has as its system Mythimna separata. The assay can be described thus: Insecticidal activity against Mythimna separata (Oriental armyworm) fourth-instar larvae reared compound pre-treated corn leaves assessed as insect mortality at 2.5 mg/L measured 2 days post compound dose.
Assay [18] concerns Aphis fabae. The assay can be described thus: Insecticidal activity against Aphis fabae (black bean aphid) infested soybean tender shoots at 0.625 mg/L measured 48 hr post compound dose by modified FAO dip method.
The subject of assay [19] is Aphis fabae. Kind of assay: Insecticidal activity against Aphis fabae (black bean aphid) infested soybean tender shoots at 2.5 mg/L measured 48 hr post compound dose by modified FAO dip method.
Assay [20] deals with Mythimna separata. Kind of assay: Insecticidal activity against Mythimna separata (Oriental armyworm) fourth-instar larvae reared compound pre-treated corn leaves assessed as insect mortality at 0.625 mg/L measured 2 days post compound dose.
The subject of assay [21] is Aphis fabae. Kind of assay: Insecticidal activity against bean Aphis fabae (black bean aphid) infested soybean tender shoots at 0.03125 mg/L measured 48 hr post compound dose by modified FAO dip method.

On to `CCC(C)[C@H]1O[C@]2(CC[C@@H]1C)C[C@@H]1C[C@@H](C/C=C(\C)[C@@H](OC(=O)C(C)(C)CC)[C@@H](C)/C=C/C=C3\CO[C@@H]4[C@H](O)C(C)=C[C@@H](C(=O)O1)[C@]34O)O2` (stereo partly drawn), for which the mortality at 1 µg/mL came out at 96.9% in the assay on Mythimna separata [1] and 85.4% in the assay on Aphis fabae [6]. The mortality at 0.006 µg/mL in the assay on Tetranychus cinnabarinus turned out to be 60.7%. The mortality at 0.0625 µg/mL with Mythimna separata [2] was determined as 0%; with Aphis fabae [14], 38%. Also, the LC50 in the assay on Mythimna separata [3] was determined as 0.25 µg/mL (≈ 0.365 µM); with Aphis fabae [13] (Aphis fabae, 48 h), 0.15 µg/mL (≈ 0.219 µM). For the same molecule, the mortality at 0.5 µg/mL in the assay with Mythimna separata [4] was found to be 75.2%; with Aphis fabae [11] it was 68.2%. The mortality at 0.25 µg/mL was found to be 57.6% in the assay with Aphis fabae [5] and 60% in the assay on Mythimna separata [15]. Also, the figures for the mortality at 0.125 µg/mL with Mythimna separata [7] and in the assay on Aphis fabae [8] were 16.7% and 45.5%, respectively. For the same molecule, the mortality at 10 µg/mL with Mythimna separata [9] and in the assay with Aphis fabae [10] was 100% throughout. The mortality at 2 µg/mL in the assay with Aphis fabae [12] came to 92.9%. The mortality at 0.03125 µg/mL in the assay on Mythimna separata [16] was 0%.

Turning to `CCC(C)[C@H]1O[C@]2(CC[C@@H]1C)C[C@@H]1C[C@@H](C/C=C(\C)[C@@H](O[C@H]3C[C@H](OC)[C@@H](OC(=O)Nc4cccc(C)c4)[C@H](C)O3)[C@@H](C)/C=C/C=C3\CO[C@@H]4[C@H](O)C(C)=C[C@@H](C(=O)O1)[C@]34O)O2` (stereo partly drawn), the mortality at 2.5 µg/mL is 98.6% with Mythimna separata [17] and 100% in the assay on Aphis fabae [19]. For the same molecule, in the assay with Tetranychus cinnabarinus, the mortality at 0.006 µg/mL came out at 49.2%. Further, the values for the mortality at 0.625 µg/mL with Aphis fabae [18] and in the assay on Mythimna separata [20] were 88.5% and 56.3%, respectively. Also, the mortality at 10 µg/mL in the assay on Mythimna separata [9] and with Aphis fabae [10] was 100% each time.

As to `CCC(C)[C@H]1O[C@]2(CC[C@@H]1C)C[C@@H]1C[C@@H](C/C=C(\C)[C@@H](O[C@H]3C[C@H](OC)[C@@H](OC(=O)Cc4ccccc4)[C@H](C)O3)[C@@H](C)/C=C/C=C3\CO[C@@H]4[C@H](O)C(C)=C[C@@H](C(=O)O1)[C@]34O)O2` (stereo partly drawn), the mortality at 1 µg/mL in the assay on Mythimna separata [1] and with Aphis fabae [6] was 100% throughout. Moreover, the mortality at 0.006 µg/mL in the assay on Tetranychus cinnabarinus is 14.3%. Moreover, the results for the mortality at 0.0625 µg/mL with Mythimna separata [2] and in the assay on Aphis fabae [14] were 10.1% and 3.3%, respectively. Also, the LC50 in the assay with Mythimna separata [3] came out at 0.204 µg/mL (≈ 0.24 µM); in the assay on Aphis fabae [13] (Aphis fabae, 48 h) it was 0.07 µg/mL (≈ 0.0824 µM). In addition, the results for the mortality at 0.5 µg/mL in the assay with Mythimna separata [4] and in the assay on Aphis fabae [11] were 90.2% and 86.7%, respectively. Further, the mortality at 0.25 µg/mL in the assay on Aphis fabae [5] was 65.8%; in the assay on Mythimna separata [15], 60.3%. The results for the mortality at 0.125 µg/mL in the assay with Mythimna separata [7] and in the assay with Aphis fabae [8] were 20.5% and 31.2%, respectively. The mortality at 0.03125 µg/mL in the assay on Aphis fabae [21] and in the assay on Mythimna separata [16] was 0% in each case. Besides, in the assay with Aphis fabae [13], the LC90 came out at 0.742 µg/mL (≈ 0.874 µM).

As for `CCC(C)[C@H]1O[C@]2(CC[C@@H]1C)C[C@@H]1C[C@@H](C/C=C(\C)[C@@H](OC(=O)Nc3cccc(C)c3)[C@@H](C)/C=C/C=C3\CO[C@@H]4[C@H](O)C(C)=C[C@@H](C(=O)O1)[C@]34O)O2` (stereo partly drawn), the mortality at 2.5 µg/mL stood at 76.7% in the assay on Mythimna separata [17] and 98.9% in the assay with Aphis fabae [19]. Further, the mortality at 0.006 µg/mL with Tetranychus cinnabarinus was 56.6%. Besides, the mortality at 0.625 µg/mL came to 86.1% with Aphis fabae [18] and 43.2% in the assay on Mythimna separata [20]. For the same molecule, the values for the mortality at 10 µg/mL in the assay with Mythimna separata [9] and in the assay on Aphis fabae [10] were 98.6% and 100%, respectively.

Consider IVERMECTIN, for which the mortality in the assay on Mythimna separata [1] was found to be 100%; in the assay with Tetranychus cinnabarinus it was 57.9%; in the assay on Mythimna separata [2], 6.4%; in the assay with Mythimna separata [4] it was 90.9%; in the assay with Aphis fabae [5], 74.1%; with Aphis fabae [6], 93.5%. Also, the mortality was determined as 29.1% in the assay with Mythimna separata [7]; 66.3% in the assay on Aphis fabae [8]; 89.1% with Aphis fabae [11]; 100% with Aphis fabae [12]; 53.6% with Aphis fabae [14]; 66.7% with Mythimna separata [15]. In the assay with Mythimna separata [16], the mortality was 0%. The LC50 was 0.19 µg/mL in the assay on Mythimna separata [3] and 0.06 µg/mL in the assay with Aphis fabae [13]. For the same molecule, the LC90 in the assay on Aphis fabae [13] was determined as 0.646 µg/mL.
